Where two headings read alike, the source gives them in different places. Marks after values point to notes of the source that are not given here.
Legend:
subcutaneous fat [1] = assay: Randomized controlled trial in mice, daily percutaneous application to right flank for 24 days (Example 1); assay type: in vivo, C57BL/6J mice; conditions: for Mean weight gain relative to vehicle / Mean weight gain / Local increase in subcutaneous fat (treated right flank vs untreated left flank): 5 mM in Lipoderm; for Mean weight gain relative to vehicle / Mean weight gain: 0.1 cc to flank daily, Day 0 until Day 24; for Mean weight gain: high-fat diet; for Local increase in subcutaneous fat (treated right flank vs untreated left flank): following 24 days of therapy
Description: The arms were as follows: vehicle (Lipoderm®), a thiazolidinedione (pioglitazone), harmine, an orexigenic compound (megestrol acetate), and efavirenz. Each compound was combined in the percutaneous Lipoderm® formulation at an equimolar concentration (5 mM). The Lipoderm® vehicle is adapted to deliver the respective compound percutaneously, i.e., across the skin and into subcutaneous fat. The formulations were applied daily to the right flank of each animal, whereas the left flank was used as an untreated control.
A randomized controlled trial was conducted on C57BL/6J. Male mice approximately six weeks old were prospectively randomized into groups and assigned to the following treatment conditions (n=5 animals per group):
Animals were shaved and depilated over the flanks at the start of the study.
Animals were kept in identical conditions and fed ab libitum with a standardized high-fat diet (70% kcal fat). Animals were weighed three times weekly. Following 24 consecutive days of treatment, mice were sacrificed and samples of skin and adjacent fat from the treated flanks are taken for histologic examination.

subcutaneous fat [2] = assay: Clinical application for augmentation of the buttocks (Example 9); assay type: in vivo, human; conditions: 10 mg/ml in Lipoderm daily, after 6 months
Description: The following description exemplifies a clinical application of percutaneous administration of an orexigenic pregnane derivative for augmentation of the buttocks. A female or male patient wishes to undergo a buttocks augmentation procedure but is concerned about the risks of surgery. The physician prescribes a daily application of megestrol acetate (for example, 10 mg/ml in Lipoderm®) to the buttocks.

[3] = oral, 4 mg/d, humans; cited from earlier work
subcutaneous fat [4] = assay: Mouse study of percutaneous rosiglitazone, methods of Example 1 (Example 2); conditions: rosiglitazone 0.1% or 0.3% by weight
subcutaneous fat [5] = conditions: for Rosiglitazone Increase over Placebo (fat thickness), MEAN: 42 days, p<0.0001
Description: A prospective controlled trial was performed in 4 Gottingen minipigs (2 males, 2 females). Hair on the back was clipped. […] An equivalent Vehicle Treatment Area was marked on the left side of the animal, such that the two treatment areas were anatomically equivalent. […] After 42 days of treatment, plasma pharmacokinetics (PK) was assessed on all animals by Liquid Chromatography/Tandem Mass Spectrometry. Necropsy was done and samples of skin, subcutaneous fat, and muscle were collected en bloc from each treatment area in a controlled fashion. […] Table 5 presents the thicknesses of subcutaneous fat on each of six treated and control (vehicle) locations, by animal. […] Table 6 compares plasma PK following percutaneous administration (present study) with plasma PK following oral administration in humans.

SMILES	Mean weight gain relative to vehicle (subcutaneous fat [1]) [%]	Mean weight gain (subcutaneous fat [1]) [g]	Local increase in subcutaneous fat (treated right flank vs untreated left flank) (subcutaneous fat [1])	also measured
O=C1Nc2ccc(Cl)cc2[C@@](C#CC2CC2)(C(F)(F)F)O1 [Efavirenz]	92	6.1	did not exhibit any increase in fat or asymmetry	–
COc1ccc2c(c1)[nH]c1c(C)nccc12 [Harmine]	102	6.8	did not exhibit any increase in fat or asymmetry	–
CC(=O)O[C@]1(C(C)=O)CC[C@H]2[C@@H]3C=C(C)C4=CC(=O)CC[C@]4(C)[C@H]3CC[C@@]21C [Megestrol acetate]	120	8.0	local increases in subcutaneous fat	Relative skin fold thickness of the left and right flanks (subcutaneous fat [1]; Day 24, treated vs untreated flank): asymmetric, with thicker skin folds on the treated flanks; Skin fold thickness, right (treated) flank (subcutaneous fat [1]; representative mouse, 24 days of treatment, untreated left flank about 2 mm): about 4 mm; Clinical size of buttocks (subcutaneous fat [2]): the buttocks appear clinically larger
CCc1ccc(CCOc2ccc(CC3SC(=O)NC3=O)cc2)nc1 (stereo not drawn) [Pioglitazone]	112	7.4	–	–
CN(CCOc1ccc(CC2SC(=O)NC2=O)cc1)c1ccccn1 (stereo not drawn) [Rosiglitazone]	–	–	–	Peak plasma level (Cmax) [3]: 355 ng/mL; Plasma exposure (AUC0-24) [3]: 2542 ng·h/mL; Adverse effects (subcutaneous fat [4]): No adverse effects were noted; Fat Thickness (mm), Rosiglitazone Treatment Area, MEAN (subcutaneous fat [5]; mean of 24 locations, vehicle mean 4.39, p < .0001 (paired t-test)): 6.29* mm; Rosiglitazone Increase over Placebo (fat thickness), MEAN (subcutaneous fat [5]): 48%; Rosiglitazone Increase over Placebo (fat thickness), MEAN (subcutaneous fat [5]; listed as rosiglitazone): 48%; Tolerability, skin irritation and clinical observations (subcutaneous fat [5]; minipig, in vivo): well tolerated, with no evidence of skin irritation or other clinical observations
